Source: patent publication US9730444B2, “Herbicidal compositions comprising isoxaben and aminopyralid” (Dow AgroSciences LLC, priority 2013, dated 2017)

Tests used:
[1] = tested on: STEME = Stellaria media (L.) Vill. (common chickweed); experiment: Small plot field trial in winter wheat, foliar-applied, visual % control of STEME; assay type: in vivo; conditions: Trial 1, observed mean, 200 L/ha water, winter wheat crop stage 12-13, rates: isoxaben 40 g ai/ha, aminopyralid 5 g ae/ha, flufenacet 200 g ai/ha, diflufenican 100 g ai/ha
Source text: (§1) Results in Table 1 are for foliar-applied compositions in small plot research experiments to evaluate the efficacy of the compositions in winter wheat. Application water volume was 200 liters per hectare (L/ha). Crop stage at time of application was 12-13. The values reported are means. […] Colby's equation was used to determine the herbicidal effects expected from the mixtures (Colby, S. R. Calculation of the synergistic and antagonistic response of herbicide combinations. Weeds 1967, 15, 20-22.).
(§2) More specifically, the following equation is used to calculate the expected activity of mixtures containing two herbicical active ingredients: Expected=A+B−(A×B/100) • A=observed efficacy of a first active ingredient at the same concentration as used in the mixture; • B=observed efficacy of the second active ingredient (or product, which may contain a combination of active ingredients) at the same concentration as used in the mixture. For mixtures containing three herbicidal active ingredients, the following equation was used to calculate the expected activity:
(§3) [formula] • A=observed efficacy of a first active ingredient at the same concentration as used in the mixture; • B=observed efficacy of a second active ingredient B at the same concentration as used in the mixture; • C=observed efficacy of a third active ingredient C at the same concentration as used in the mixture. The following abbreviations are used in Table 1: • GERDI=Geranium dissectum (cutleaf geranium) • STEME=Stellaria media (L.) Vill. (common chickweed) • g ai/ha=grams active ingredient per hectare • g ae/ha=grams acid equivalent per hectare • Ob=observed value of percent (%) control rated visually • Ex=expected value of percent (%) control as calculated by Colby's equation

[2] = tested on: GERDI = Geranium dissectum (cutleaf geranium); experiment: Small plot field trial in winter wheat, foliar-applied, visual % control of GERDI; assay type: in vivo; conditions: Trial 1, observed mean, 200 L/ha water, winter wheat crop stage 12-13, rates: isoxaben 40 g ai/ha, aminopyralid 5 g ae/ha, flufenacet 200 g ai/ha, diflufenican 100 g ai/ha
Source text: as §1, §2, §3

SMILES | VISUAL % CONTROL OF STEME 28 DAT Ob [1] [e %] | VISUAL % CONTROL OF GERDI 28 DAT Ob [2] [d %]
Nc1cc(Cl)nc(C(=O)O)c1Cl [aminopyralid, 4-amino-3,6-dichloropyridine-2-carboxylic acid] | 0 | 0
CC(C)N(C(=O)COc1nnc(C(F)(F)F)s1)c1ccc(F)cc1 [flufenacet, N-(4-fluorophenyl)-N-(1-methylethyl)-2-[[5-(trifluoromethyl)-1,3,4-thiadiazol-2-yl]oxy]acetamide] | 0 | 0
CCC(C)(CC)c1cc(NC(=O)c2c(OC)cccc2OC)on1 [isoxaben, N-[3-(1-ethyl-1-methylpropyl)isoxazol-5-yl]-2,6-dimethoxybenzamide] | 0 | 0
